Experimental data reported in patent US4542018A, “Teichomycin A2 pure single factors 1, 2, 3, 4 and 5 and method for their production” (Gruppo Lepetit S.p.A., priority 1982, dated 1985).

What was measured:
Staphylococcus aureus = assay: In vitro antibacterial activity (MIC), two-fold dilution in microtiter system; format: cell-based; settings: 5 tested strains, clinical isolates, Penassay broth, 18-24 h at 37° C.
Procedure: (§1) Penassay broth (Difco) and Todd-Hewitt broth (Difco) were used for staphylococci and streptococci respectively. Overnight broth cultures were diluted so that the final inoculum was about 10^3 colony forming units/ml.

[1] = tested on: Staphylococcus epidermidis; assay: as above; format: cell-based; settings: 4 tested strains, clinical isolates, Penassay broth, 18-24 h at 37° C.
Procedure: as §1

Streptococcus agalactiae = assay: as above; format: cell-based; settings: 1 tested strain, clinical isolate, Todd-Hewitt broth, 18-24 h at 37° C.
Procedure: as §1

Streptococcus bovis = assay: as above; format: cell-based; settings: 1 tested strain, clinical isolate, Todd-Hewitt broth, 18-24 h at 37° C.
Procedure: as §1

Streptococcus faecalis = assay: as above; format: cell-based; settings: 5 tested strains, clinical isolates, Todd-Hewitt broth, 18-24 h at 37° C.
Procedure: as §1

Streptococcus mitis = assay: as above; format: cell-based; settings: 1 tested strain, clinical isolate, Todd-Hewitt broth, 18-24 h at 37° C.
Procedure: as §1

Streptococcus pneumoniae = assay: as above; format: cell-based; settings: 6 tested strains, clinical isolates, Todd-Hewitt broth, 18-24 h at 37° C.
Procedure: as §1

Streptococcus pyogenes = assay: as above; format: cell-based; settings: 7 tested strains, clinical isolates, Todd-Hewitt broth, 18-24 h at 37° C.
Procedure: as §1

Streptococcus salivarius = assay: as above; format: cell-based; settings: 1 tested strain, clinical isolate, Todd-Hewitt broth, 18-24 h at 37° C.
Procedure: as §1

Streptococcus sanguis = assay: as above; format: cell-based; settings: 1 tested strain, clinical isolate, Todd-Hewitt broth, 18-24 h at 37° C.
Procedure: as §1

S. aureus ATCC 6538 = assay: Microbiological potency by agar diffusion method, Teichomycin A2 complex as standard; format: cell-based; settings: 2.5-20 μg/ml, 37° C., 18 hours
Procedure: In particular an adeguate amount of Teichomycin A2 factor 1, Teichomycin A2 factor 2, Teichomycin A2 factor 3, Teichomycin A2 factor 4, Teichomycin A2 factor 5 and Teichomycin A2 complex used as the standard is dissolved in dimethylformamide at a concentration of 2000 μg/ml. These solutions are further diluted using phosphate buffer 0.067 M pH 7.4 supplemented with 1% bovine serum in order to provide the following concentrations: 2.5, 5, 10, and 20 μg/ml.
Filter paper discs are then soaked into the sample solutions and placed at regular intervals on the surface of agar plates seeded with a suspension of the test microorganism. The plates are incubated at 37° C. for 18 hours and then the diameter of the inhibition zones are measured. The data obtained are fed into a computer to calculate the potency of the individual factors relative to the complex.

Solubility = format: physicochemical; settings: for solubility in water: water at pH>7.0 or at pH<2
Gram-positive bacteria = assay: In vitro antibacterial spectrum; format: cell-based
Procedure: as §1

S. pneumoniae L 44 = assay: In vivo antibacterial activity, experimental infection in mice; settings: s.c.
Procedure: (§2) Teichomycin A2 factors 2,3,4 and 5 were tested in the experimental infections caused by S. pneumoniae and by S. pyogenes in mice. The experiments were carried out in comparison with Teichomycin A2 complex.

S. pyogenes L 49 = assay: as above; settings: s.c.
Procedure: as §2

| Structure (SMILES) | M.I.C. (Staphylococcus aureus) | M.I.C. [1] | M.I.C. (Streptococcus agalactiae) | M.I.C. (Streptococcus bovis) | M.I.C. (Streptococcus faecalis) | M.I.C. (Streptococcus mitis) | M.I.C. (Streptococcus pneumoniae) | M.I.C. (Streptococcus pyogenes) | M.I.C. (Streptococcus salivarius) | M.I.C. (Streptococcus sanguis) | microbiological potency relative to the complex (S. aureus ATCC 6538) | solubility in chloroform, benzene, n-hexane, acetonitrile, ethyl ether, acetone, ethyl acetate, carbon tetrachloride (Solubility) | solubility in dimethylformamide, dimethylsulfoxide and propyleneglycol (Solubility) | solubility in methanol and ethanol (Solubility) | solubility in methylcellosolve and glycerol (Solubility) | solubility in water (Solubility) | in vitro antibacterial activity (spectrum) (Gram-positive bacteria) | ED50 (S. pneumoniae L 44) | ED50 (S. pyogenes L 49) |
| --- | --- | --- | --- | --- | --- | --- | --- | --- | --- | --- | --- | --- | --- | --- | --- | --- | --- | --- | --- |
| CCCCC/C=C\CCC(=O)N[C@H]1[C@H](Oc2c3cc4cc2Oc2ccc(cc2Cl)[C@@H](O[C@@H]2O[C@H](CO)[C@@H](O)[C@H](O)[C@H]2NC(C)=O)[C@@H]2NC(=O)[C@H](NC(=O)[C@@H]4NC(=O)[C@H]4NC(=O)[C@@H](Cc5ccc(c(Cl)c5)O3)NC(=O)[C@H](N)c3ccc(O)c(c3)Oc3cc(O)cc4c3)c3ccc(O)c(c3)-c3c(O[C@H]4O[C@H](CO)[C@@H](O)[C@H](O)[C@@H]4O)cc(O)cc3[C@@H](C(=O)O)NC2=O)O[C@H](CO)[C@@H](O)[C@@H]1O [Teichomycin A2 factor 1] | 0.8 to 1.6 µg/mL | 0.2 to 1.6 µg/mL | 0.1 µg/mL | 0.4 µg/mL | 0.2 to 0.4 µg/mL | 0.025 µg/mL | 0.1 to 0.2 µg/mL | 0.05 to 0.1 µg/mL | 0.2 µg/mL | 0.1 µg/mL | 841 U/mg | almost insoluble | freely soluble | poorly soluble | slightly soluble | freely soluble | mainly active against Gram-positive bacteria |  |  |
| CC(=O)N[C@H]1[C@H](O[C@@H]2c3ccc(c(Cl)c3)Oc3cc4cc(c3O[C@@H]3O[C@H](CO)[C@@H](O)[C@H](O)[C@H]3NC(=O)CCCCCCC(C)C)Oc3ccc(cc3Cl)C[C@H]3NC(=O)[C@H](N)c5ccc(O)c(c5)Oc5cc(O)cc(c5)[C@H](NC3=O)C(=O)N[C@H]4C(=O)N[C@H]3C(=O)N[C@@H]2C(=O)N[C@H](C(=O)O)c2cc(O)cc(O[C@H]4O[C@H](CO)[C@@H](O)[C@H](O)[C@@H]4O)c2-c2cc3ccc2O)O[C@H](CO)[C@@H](O)[C@@H]1O [Teichomycin A2 factor 2] | 0.8 to 1.6 µg/mL | 0.1 to 1.6 µg/mL | 0.1 µg/mL | 0.4 µg/mL | 0.1 to 0.4 µg/mL | 0.025 µg/mL | 0.05 to 0.1 µg/mL | 0.025 to 0.1 µg/mL | 0.2 µg/mL | 0.1 µg/mL | 1086 U/mg | almost insoluble | freely soluble | poorly soluble | slightly soluble | freely soluble | mainly active against Gram-positive bacteria | 0.28 (0.22-0.34) mg/kg/day | 0.15 (0.13-0.18) mg/kg/day |
| CCCCCCCCCC(=O)N[C@H]1[C@H](Oc2c3cc4cc2Oc2ccc(cc2Cl)[C@@H](O[C@@H]2O[C@H](CO)[C@@H](O)[C@H](O)[C@H]2NC(C)=O)[C@@H]2NC(=O)[C@H](NC(=O)[C@@H]4NC(=O)[C@H]4NC(=O)[C@H](Cc5ccc(c(Cl)c5)O3)NC(=O)[C@H](N)c3ccc(O)c(c3)Oc3cc(O)cc4c3)c3ccc(O)c(c3)-c3c(O[C@H]4O[C@H](CO)[C@@H](O)[C@H](O)[C@@H]4O)cc(O)cc3[C@@H](C(=O)O)NC2=O)O[C@H](CO)[C@@H](O)[C@@H]1O [Teichomycin A2 factor 3] | 0.4 to 0.8 µg/mL | 0.2 to 0.8 µg/mL | 0.05 µg/mL | 0.2 µg/mL | 0.1 to 0.2 µg/mL | 0.0125 µg/mL | 0.05 to 0.1 µg/mL | 0.025 to 0.05 µg/mL | 0.1 µg/mL | 0.1 µg/mL | 1131 U/mg | almost insoluble | freely soluble | poorly soluble | slightly soluble | freely soluble | mainly active against Gram-positive bacteria | 0.27 (0.23-0.32) mg/kg/day | 0.13 (0.11-0.16) mg/kg/day |
| CCC(C)CCCCCCC(=O)N[C@H]1[C@H](Oc2c3cc4cc2Oc2ccc(cc2Cl)[C@@H](O[C@@H]2O[C@H](CO)[C@@H](O)[C@H](O)[C@H]2NC(C)=O)[C@@H]2NC(=O)[C@H](NC(=O)[C@@H]4NC(=O)[C@H]4NC(=O)[C@@H](Cc5ccc(c(Cl)c5)O3)NC(=O)[C@H](N)c3ccc(O)c(c3)Oc3cc(O)cc4c3)c3ccc(O)c(c3)-c3c(O[C@H]4O[C@H](CO)[C@@H](O)[C@H](O)[C@@H]4O)cc(O)cc3[C@@H](C(=O)O)NC2=O)O[C@H](CO)[C@@H](O)[C@@H]1O (stereo partly shown) [Teichomycin A2 factor 4] | 0.2 to 0.8 µg/mL | 0.2 to 0.8 µg/mL | 0.1 µg/mL | 0.4 µg/mL | 0.1 to 0.4 µg/mL | 0.025 µg/mL | 0.05 to 0.1 µg/mL | 0.006 to 0.05 µg/mL | 0.05 µg/mL | 0.05 µg/mL | 1066 U/mg | almost insoluble | freely soluble | poorly soluble | slightly soluble | freely soluble | mainly active against Gram-positive bacteria |  |  |
| CC(=O)N[C@H]1[C@H](O[C@@H]2c3ccc(c(Cl)c3)Oc3cc4cc(c3O[C@@H]3O[C@H](CO)[C@@H](O)[C@H](O)[C@H]3NC(=O)CCCCCCCC(C)C)Oc3ccc(cc3Cl)C[C@H]3NC(=O)[C@H](N)c5ccc(O)c(c5)Oc5cc(O)cc(c5)[C@H](NC3=O)C(=O)N[C@H]4C(=O)N[C@H]3C(=O)N[C@@H]2C(=O)N[C@H](C(=O)O)c2cc(O)cc(O[C@H]4O[C@H](CO)[C@@H](O)[C@H](O)[C@@H]4O)c2-c2cc3ccc2O)O[C@H](CO)[C@@H](O)[C@@H]1O [Teichomycin A2 factor 5] | 0.2 to 0.8 µg/mL | 0.2 to 0.8 µg/mL | 0.1 µg/mL | 0.4 µg/mL | 0.1 to 0.4 µg/mL | 0.025 µg/mL | 0.05 to 0.1 µg/mL | 0.006 to 0.05 µg/mL | 0.05 µg/mL | 0.05 µg/mL | 954 U/mg | almost insoluble | freely soluble | poorly soluble | slightly soluble | freely soluble | mainly active against Gram-positive bacteria | 0.13 (0.10-0.15) mg/kg/day | 0.10 (0.098-0.13) mg/kg/day |
